Experimental data reported in patent US7157455B2, “4-Aminopyrimidine-5-one derivatives” (Hoffmann-La Roche Inc., priority 2003, dated 2007).
Where two headings read alike, the source gives them in different places.

Legend:
[1] = biological target: human cyclin E-CDK2 (Homo sapiens, UniProt P24941); experiment: FlashPlate kinase assay, IC50 measurement, cyclin E-CDK2; format: biochemical
Experimental: To determine inhibition of Cdk4, Cdk2 and Cdk1 activity, kinase assays were conducted using FlashPlate™ assays (NEN™-Life Science Products). FlashPlate assays were performed using recombinant human cyclin B-CDK1, human cyclin E-CDK2 or human cyclin D1-CDK4 complexes. GST-cyclinE (GST-cycE), CDK2, GST-cyclinB (GST-cycB), CDK1, GST-CDK4 and cyclin D1 (cycD1) cDNA clones in baculovirus vectors were provided by Dr. W. Harper at the Baylor College of Medicine, Houston, Tex.
(§1) The expression of the 62 Kd protein was under the control of an IPTG inducible promoter in an M15 E. coli strain. Cells were lysed by sonication and purification was carried out by binding lysates at pH 8.0 to a Ni-chelated agarose column pretreated with 1 mM imidazole. The resin was then washed several times with incrementally decreasing pH buffers to pH 6.0, and eluted with 500 mM imidazole. Eluted protein was dialysed against 20 mM HEPES pH 7.5, 30% glycerol, 200 mM NaCl, and 1 mM DTT. Purified Rb fusion protein stocks were quantitated for protein concentration, aliquoted, and stored at −70° C.
(§2) For all three kinase assays reported herein, 96-well FlashPlates were coated with Rb protein at 10 μg/ml, using 100 μl per well. Plates were incubated at 4° C. overnight or at room temperature for 3 hours on a shaker. To control for nonspecific phosphorylation, one row of wells was coated with 100 μl/well coating buffer (20 mM HEPES, 0.2 M NaCl). Plates were then washed twice with wash buffer (0.01% Tween 20 in phosphate-buffered saline). Compounds to be tested (“test compounds”) were added to the wells at 5× final concentration. Reactions were initiated by immediate addition of 40 μl reaction mix (25 mM HEPES, 20 mM MgCl2, 0.002% Tween 20, 2 mM DTT, 1 μM ATP, 4 nM ^33P-ATP) and a sufficient amount of enzyme to give counts that were at least 10-fold above background. Plates were incubated at room temperature on a shaker for 30 minutes. Plates were washed four times with the wash buffer, sealed, and counted on the TopCount scintillation counter (Packard Instrument Co., Downers Grove, Ill. The percent inhibition of Rb phosphorylation, which is a measure of the inhibition of CDK activity, was determined according to the following formula:
[formula] where “test compound” refers to the average counts per minute of the test duplicates, “nonspecific” refers to the average counts per minute when no CyclinD/Cdk4, etc., was added, and “total” refers to the average counts per minute when no compound was added. […] B: Ki Measurement

[2] = tested on: HCT116 cells; experiment: Tetrazolium dye proliferation assay (MTT assay); format: cell-based; settings: Homo sapiens, HCT-116; 90% inhibition of cell proliferation, HCT116 colorectal carcinoma cell line
Experimental: The cell line used was HCT116, a colorectal carcinoma cell line obtained from the American Type Cell Culture Collection (ATCC; Rockville, Md.). The cells were grown in McCoy's 5A medium supplemented with 10% FCS and L-glutamine.
Cells were plated at the appropriate seeding density to give logarithmic growth over the course of the assay in a 96-well tissue culture plate. Plates were incubated overnight at 37° C. in a humidified incubator with 5% CO2. The next day, test compounds were serially diluted to four times the final concentration in the appropriate medium containing 1.2% DMSO. One-fourth final volume of each dilution was added in duplicate to the plates containing cells. The same volume of 1.2% DMSO in medium was added to a row of “control wells” such that the final concentration of DMSO in each well was 0.3%. Wells to which no cells were added served as the “blank.” Wells to which no inhibitor was added served as “no inhibitor control.” The plates were) returned to the incubator, and at set time points (determined by their growth curves) plates were analyzed as described below.
3-(4,5-dimethylthiazole-2-yl)-2,5-diphenyl-2H-tetrazolium bromide (thiazolyl blue; MTT; Sigma) was added to each well to yield a final concentration of 1 mg/ml. Plates were returned to the incubator for 2.5–3 hours at 37° C. The MTT-containing medium was removed and the resulting formazan metabolite was solubilized in 100% ethanol with shaking for 15 minutes at room temperature. Absorbance readings were taken in a microtiter plate reader (Dynatech and Molecular Devices plate readers were used interchangeably) at a wavelength of 570 nm with a 650 nm reference. Percent inhibition (% INH) is calculated by subtracting the absorbance of the blank well from all wells, then subtracting the ratio of the average absorbance of each test duplicate (SAVE) by the average of the controls (CAVE) from 1.00. The final number is then multiplied by 100(% INH=(1.00−SAVE/CAVE)×100).

[3] = biological target: human cyclin D1-CDK4 (Homo sapiens, UniProt P11802); experiment: FlashPlate kinase assay, IC50 measurement, cyclin D1-CDK4; format: biochemical; settings: Rb protein substrate, 1 μM ATP
Experimental: (§3) To determine inhibition of Cdk4, Cdk2 and Cdk1 activity, kinase assays were conducted using FlashPlate™ assays (NEN™-Life Science Products). FlashPlate assays were performed using recombinant human cyclin B-CDK1, human cyclin E-CDK2 or human cyclin D1-CDK4 complexes. GST-cyclinE (GST-cycE), CDK2, GST-cyclinB (GST-cycB), CDK1, GST-CDK4 and cyclin D1 (cycD1) cDNA clones in baculovirus vectors were provided by Dr. W. Harper at the Baylor College of Medicine, Houston, Tex. Proteins were co-expressed in High Five™ insect cells and the complex was purified on glutathione Sepharose resin (Pharmacia, Piscataway, N.J.) as previously described (Harper, J. W. et al. Cell 1993, 75, 805–816). A 6×-Histidine tagged truncated form of retinoblastoma (Rb) protein (amino acid 386–928) was used as the substrate for the cycD1-CDK4, cycB-CDK1 and the cycE-CDK2 assays (the expression plasmid was provided by Dr. Veronica Sullivan, Department of Molecular Virology, Roche Research Centre, Welwyn Garden City, United Kingdom). The Rb protein is a natural substrate for phosphorylation by CDK4, CDK2 and CDK1 (see Herwig and Strauss Eur. J. Biochem. Vol. 246 (1997) pp. 581–601 and the references cited therein).
as §1, §2
(§4) [formula] where “test compound” refers to the average counts per minute of the test duplicates, “nonspecific” refers to the average counts per minute when no CyclinD/Cdk4, etc., was added, and “total” refers to the average counts per minute when no compound was added. The IC50 value is the concentration of test compound that reduces by 50% the protein-kinase induced incorporation of the radiolabel under the test conditions described. B: Ki Measurement

[4] = biological target: human cyclin B-CDK1 (Homo sapiens, UniProt P06493); experiment: FlashPlate kinase assay, IC50 measurement, cyclin B-CDK1; format: biochemical; settings: Rb protein substrate, 1 μM ATP
Experimental: as §3, §1, §2, §4

[5] = Rb protein substrate, 1 μM ATP, unit inferred, read-out: CDK2 IC50
[6] = Rb protein substrate, 1 μM ATP, read-out: CDK2 IC50

Chain of human cyclin D1-CDK4 (P11802 whole entry): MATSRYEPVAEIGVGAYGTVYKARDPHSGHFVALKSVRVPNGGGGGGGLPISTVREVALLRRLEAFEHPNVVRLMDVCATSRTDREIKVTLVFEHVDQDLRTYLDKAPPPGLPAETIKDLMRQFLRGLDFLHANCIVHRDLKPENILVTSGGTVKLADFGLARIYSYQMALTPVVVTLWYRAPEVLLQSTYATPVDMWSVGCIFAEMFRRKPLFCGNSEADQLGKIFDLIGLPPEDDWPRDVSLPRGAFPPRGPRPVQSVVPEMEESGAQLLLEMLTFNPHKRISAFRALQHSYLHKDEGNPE
Chain of human cyclin D1-CDK4 (P24385 whole entry partner): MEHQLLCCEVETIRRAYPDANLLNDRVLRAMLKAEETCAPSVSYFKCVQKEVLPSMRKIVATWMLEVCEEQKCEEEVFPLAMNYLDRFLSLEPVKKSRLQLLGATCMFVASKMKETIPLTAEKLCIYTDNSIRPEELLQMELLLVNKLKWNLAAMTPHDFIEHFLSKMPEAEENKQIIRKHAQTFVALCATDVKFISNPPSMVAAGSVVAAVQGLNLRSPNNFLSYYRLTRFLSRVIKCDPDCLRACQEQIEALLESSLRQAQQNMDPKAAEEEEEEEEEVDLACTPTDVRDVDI
Chain of human cyclin B-CDK1 (P06493 whole entry): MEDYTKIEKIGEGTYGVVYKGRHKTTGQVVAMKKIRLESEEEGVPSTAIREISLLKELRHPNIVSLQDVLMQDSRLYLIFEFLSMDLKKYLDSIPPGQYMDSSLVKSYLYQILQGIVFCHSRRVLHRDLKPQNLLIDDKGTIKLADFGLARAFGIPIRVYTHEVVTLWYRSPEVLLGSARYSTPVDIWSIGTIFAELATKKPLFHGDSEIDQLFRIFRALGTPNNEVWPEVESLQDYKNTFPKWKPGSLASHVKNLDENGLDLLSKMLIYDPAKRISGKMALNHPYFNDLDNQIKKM
Chain of human cyclin B-CDK1 (P14635 whole entry partner): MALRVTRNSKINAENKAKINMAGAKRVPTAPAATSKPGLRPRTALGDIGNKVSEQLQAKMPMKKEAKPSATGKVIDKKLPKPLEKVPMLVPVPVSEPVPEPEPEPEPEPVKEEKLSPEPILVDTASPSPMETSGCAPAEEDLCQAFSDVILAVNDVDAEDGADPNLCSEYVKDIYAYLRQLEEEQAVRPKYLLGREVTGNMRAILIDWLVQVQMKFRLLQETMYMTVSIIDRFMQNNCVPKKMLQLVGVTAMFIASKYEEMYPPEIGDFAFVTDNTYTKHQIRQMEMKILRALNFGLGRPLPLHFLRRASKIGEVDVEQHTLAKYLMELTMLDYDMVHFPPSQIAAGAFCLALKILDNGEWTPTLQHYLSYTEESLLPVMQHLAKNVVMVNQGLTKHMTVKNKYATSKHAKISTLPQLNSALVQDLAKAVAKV

In the case of COc1ccc(F)c(F)c1C(=O)c1cnc(Cl)nc1N [Example 289, (4-Amino-2-chloro-pyrimidin-5-yl)-(2,3-difluoro-6-methoxy-phenyl)-methanone], the melting point is reported as 238 to 239 °C (dec.).
For COc1ccc(F)c(F)c1C(=O)c1cnc(NC2CCN(S(=O)(=O)CCCN3CCN(C)CC3)CC2)nc1N [Example 228, (4-Amino-2-[1-[3-(4-methyl-piperazin-1-yl)-propan-1-sulfonyl]-piperidin-4-ylamino]-pyrimidin-5-yl)-(2,3-difluoro-6-methoxy-phenyl)-methanone], the IC50 [1, 5] was 17 nM, the IC90 [2] was 274 nM and the IC50 [3] was 1 nM. The IC50 [4] was 39 nM.
In the case of COc1ccc(F)c(F)c1C(=O)c1cnc(N[C@H]2CC[C@H](NS(=O)(=O)CCCN3CCOCC3)CC2)nc1N [Example 294, Trans-3-Morpholin-4-yl-propane-1-sulfonic acid [4-[4-amino-5-(2,3-difluoro-6-methoxy-benzoyl)-pyrimidin-2-ylamino]-cyclohexyl]-amide], the IC50 [1, 6] is reported as 5 nM, the IC90 [2] is reported as 374 nM and the IC50 [3] is reported as 15 nM. It also gave an IC50 [4] of 8 nM.
In the case of COc1ccc(F)c(F)c1C(=O)c1cnc(N[C@H]2CC[C@H](NCCO)CC2)nc1N [Example 290, Trans-[4-Amino-2-[4-(2-hydroxy-ethylamino)-cyclohexylamino]-pyrimidin-5-yl}-(2,3-difluoro-6-methoxy-phenyl)-methanone], the IC50 [1, 6] is reported as 5 nM, the IC90 [2] is reported as 179 nM and the IC50 [3] is reported as 20 nM. For the same compound, the IC50 [4] was 18 nM.
For COc1cc(F)c(F)c(F)c1C(=O)c1cnc(NC2CCN(S(C)(=O)=O)CC2)nc1N [Example 207, [4-Amino-2-(1-methanesulfonyl-piperidin-4-ylamino)-pyrimidin-5-y]-(2,3,4-trifluoro-6-methoxy-phenyl)-methanone], the IC50 [1] was 2 nM, the IC90 [2] was 630 nM and the IC50 [3] was 1 nM. For the same compound, the IC50 [4] was 5 nM.
For COc1ccccc1C(=O)c1cnc(Nc2ccc(N3CCN(C(C)C)CC3)cc2)nc1N [Example 8, [4-Amino-2-[4-(4-isopropyl-piperazin-1-yl)-phenylamino]-pyrimidin-5-yl]-(2-methoxy-phenyl)-methanone], the IC50 [1, 6] was 10000 nM, the IC90 [2] was 20900 nM and the IC50 [3] was 171 nM. It also gave an IC50 [4] of 3560 nM.
For COc1ccc(F)c(F)c1C(=O)c1cnc(NC2CCN(C=O)CC2)nc1N [Example 284, 4-[4-Amino-5-(2,3-difluoro-6-methoxy-benzoyl)-pyrimidin-2-ylamino]-piperidine-1-carbaldehyde], the melting point was 263 °C (dec.).
For COc1ccc(F)c(F)c1C(=O)c1cnc(NC2CCN(S(=O)(=O)NC(C)=O)CC2)nc1N [Example 286, 4-[4-Amino-5-(2,3-difluoro-6-methoxy-benzoyl)-pyrimidin-2-ylamino]-piperidine-1-sulfonic acid acetyl-amide], the melting point was 153 °C (dec.).
With COc1ccc(F)cc1C(=O)c1cnc(NC2CCN(C(=O)OC(C)(C)C)CC2)nc1N [Example 164, 4-[4-Amino-5-(5-fluoro-2-methoxy-benzoyl)-pyrimidin-2-ylamino]-piperidine-1-carboxylic acid tert-butyl ester] the melting point was 122 to 124 °C (dec.).
In the case of COc1ccc(F)c(F)c1C(O)c1cnc(Cl)nc1Cl (racemic) [Example 287, rac-(2,4-Dichloro-pyrimidin-5-yl)-(2,3-difluoro-6-methoxy-phenyl)-methanol], the melting point is reported as 99 to 101 °C.
With CCS(=O)(=O)c1ncc(C(=O)c2cc(F)ccc2OC)c(N)n1 [Example 48, (4-Amino-2-ethanesulfonyl-pyrimidin-5-yl)-(5-fluoro-2-methoxy-phenyl)-methanone] the melting point was 174 to 175 °C.
CS(=O)(=O)N1CCC(Nc2ncc(C(=O)c3ccccc3)c(N)n2)CC1 [Example 283, [4-Amino-2-(1-methanesulfonyl-piperidin-4-ylamino)-pyrimidin-5-yl]-phenyl-methanone] gave a melting point of 249 to 250 °C.
COc1cc(F)c(F)c(F)c1C(=O)c1cnc(NC2CCN(C(C)=O)CC2)nc1N [Example 204, 1-[4-[4Amino-5-(2,3,4-trifluoro-6-methoxy-benzoyl)-pyrimidin-2-ylamino]-piperidin-1-yl]-ethanone] gave an IC50 [1, 5] of 51 nM, an IC90 [2] of 2400 nM and an IC50 [3] of 10 nM. It also gave an IC50 [4] of 128 nM.
For COc1ccc(F)c(F)c1C(=O)c1cnc(Cl)nc1Cl [Example 288, (2,4-Dichloro-pyrimidin-5-yl)-(2,3-difluoro-6-methoxy-phenyl)-methanone], the melting point was 137 to 139 °C.
COc1ccc(F)c(F)c1C(=O)c1cnc(N[C@H]2CC[C@H](N3CCCS3(=O)=O)CC2)nc1N [Example 298, Trans-[4-Amino-2-[4-(1,1-dioxo-1λ^6-isothiazolidin-2-yl)-cyclohexylamino]-pyrimidin-5-yl]-(2,3-difluoro-6-methoxy-phenyl)-methanone] gave an IC50 [1, 6] of 8 nM, an IC90 [2] of 320 nM and an IC50 [3] of 5 nM. For the same compound, the IC50 [4] was 28 nM.
In the case of CC[S+]([O-])c1ncc(C(=O)c2cc(F)ccc2OC)c(N)n1 (stereo not drawn) [Example 163, (4-Amino-2-ethanesulfinyl-pyrimidin-5-yl)-(5-fluoro-2-methoxy-phenyl)-methanone], the melting point is reported as 150 to 152 °C.
COC(=O)N1CCCC(Nc2ncc(C(=O)c3ccccc3OC)c(N)n2)C1 (stereo not drawn) [Example 54, 3-[4-Amino-5-(2-methoxy-benzoyl)-pyrimidin-2-ylamino]-piperidine-1-carboxylic acid methyl ester] showed an IC50 [1, 6] of 713 nM, an IC90 [2] of 6440 nM and an IC50 [3] of 459 nM. The IC50 [4] was 469 nM.
In the case of COc1ccc(F)c(F)c1C(=O)c1cnc(NC2CCN(S(N)(=O)=O)CC2)nc1N [Example 285, 4-[4-Amino-5-(2,3-difluoro-6-methoxy-benzoyl)-pyrimidin-2-ylamino]-piperidine-1-sulfonic acid amide], the melting point is reported as 217 to 218 °C.
